Our source for the IC50 and EC50 values is paper PMC6470642, “Phenalenones from a Marine-Derived Fungus Penicillium sp” (Marine Drugs, 2019).

The nature of one data set: cytotoxicity assay, A549. It is filed as cell-based. The settings on record: human, A549 cells. The procedure:
(§1) The cytotoxicity assay was performed in accordance with the published protocols. The antimicrobial assay was performed according to the method described previously.

Another data set relates to RAW 264.7 cells. In words: iNOS assay: inhibition of LPS-stimulated NO production (Griess reaction). It counts as cell-based, mouse. Particulars: 18 h. The procedure: Mouse macrophage RAW 264.7 cells obtained from the American Type Culture Collection (ATCC, Rockville, MD, USA) were cultured in Dulbecco’s modified Eagle’s medium (DMEM) supplemented with 10% heat-inactivated fetal bovine serum (FBS) with antibiotics-antimycotics (PSF; 100 units/mL penicillin G sodium, […] streptomycin, and 250 ng/mL amphotericin B). The cells were seeded in 24-well plates (2 × 10^5 cells/mL). The next day, the culture media was changed to 1% FBS-DMEM, and the samples were treated with the test compounds. After pretreatment with the drug for 1 h, 1 μg/mL lipopolysaccharides (LPS) was added to stimulate NO production. The cells were incubated for an additional 18 h, and the amount of NO produced in the supernatant was determined by Griess reaction. Then, the absorbance was measured at 540 nm, and the nitrite concentration was determined by comparison with a sodium nitrite standard curve. The percent inhibition was calculated using the following formula: [1 − (NO level of test samples/NO levels of vehicle-treated control)] × 100. The IC50 values were calculated through nonlinear regression analysis using TableCurve 2-D v5.01 (Systat Software Inc., San Jose, CA, USA). At the same time, MTT assays were also performed to test cell viability. MTT solution (final concentration of 500 μg/mL) was added to the cells, and they were incubated for 4 h at 37 °C. The culture media was removed, and the remaining dyes were dissolved in DMSO. The absorbance of each well was measured at 570 nm using a VersaMax ELISA microplate reader (Molecular Devices, Sunnyvale, CA, USA). The percent survival was determined by comparison with a control group (LPS+).
Figure S54. Inhibition of NO production of herqueinone compounds purified from Penicillium herquei. The effects of compounds on NO production in RAW 264.7 cells. (A) Cells were pre-treated with compounds (20 uM) and AMT (0.2 uM) for 1 h and LPS (1 ug/mL ) was added further incubated for 18 h . The amount of iNOS was examined by Griess reaction. (B) After iNOS level was measured, cell viability was tested using MTT assay. The values are expressed as the means ± SD of triplicate tests. (C) RAW 264.7 cells were pretreated with various concentrations of compound 7 and AMT (0.2 uM) for 1 h, and LPS (1 ug/mL) was added further incubated for 18 h. The amount of iNOS was examined b y Griess reaction. (D) Cell viability was tested by MTT assay. The values are expressed as the means ± SD of triplicate tests.
On the technique in general: The Griess reaction detects nitrite, a stable product of nitric oxide.

Another data set has as its system HUVECs. In words: VEGF-induced tube formation assay (angiogenesis). It is filed as cell-based, human. Particulars: VEGF 50 ng/mL, 6 h, read-out: IC50, inhibition of tube formation. The procedure: Human umbilical vascular endothelial cells (HUVECs) were purchased from the American Type Culture Collection (ATCC, Rockville, MD, USA), and cultured in EGM-2 (Lonza, Walkerswille, MD, USA) supplemented with 10% FBS and antibiotics-antimycotics (PSF). The cells were maintained at 37 °C under a humidified atmosphere containing 5% CO2. A 96-well plate was coated with Matrigel (Corning) for 30 min at 37 °C under a humidified atmosphere containing 5% CO2. HUVECs (1.8 × 10^4 cells/well) were mixed with the test compounds in 0.5% FBS EBM-2 medium with VEGF (50 ng/mL) or 0.5% FBS EBM-2 medium only for the VEGF negative control. The cells were incubated for 6 h and photographed using an inverted microscope (Olympus Optical Co. Ltd., Tokyo, Japan). Images were quantified with an angiogenesis analyzer using ImageJ software. Tube formation activity was calculated using the following formula: [(Total segment # (tested compound) − Total segment # (VEGF−)]/[Total segment # (VEGF+) − Total segment # (VEGF−)] × 100 (# stands for tubule segment number). The IC50 values were calculated through nonlinear regression analysis using TableCurve 2-D v5.01 (Systat Software Inc., San Jose, CA, USA). Cell viabilities were evaluated with the MTT assay. HUVECs (0.8 × 10^4 cells/well) were seeded into a 96-well plate and indicated for 1 day. The culture medium was replaced with serum-free medium, and the cells were incubated overnight. After starvation, the cells were treated with the test compounds and VEGF (50 ng/mL) in 2% FBS EBM-2 medium. Cells were incubated for a further 24 h, and MTT solution (final concentration of 500 μg/mL) was added to the cells to measure the cell viability. The formazan products were dissolved in DMSO. The absorbance of each well was measured at 570 nm using a VersaMax ELISA microplate reader (Molecular Devices, Sunnyvale, CA, USA).
Figure S55. Angiogenesis activities of herqueinone compounds purified from Penicillium herquei. Effects of 6 on VEGF-induced tube formation and cell viability. Tube formation activity was measured after cells were incubated with indicated concentrations of 6 on matrigel-coated 96wells for 6 h in the presence of VEGF (50 ng/mL) compared to control in the absence of VEGF. Cell viability was measured by MTT assay after treat with indicated concentrations of 6 in the presence of VEGF (50 ng/mL) for 24 h. The values are expressed as the means ± SD of triplicate tests. * p ≤ 0.05, ** p ≤ 0.01 and *** p ≤ 0.001.

The next data set is described as follows: cytotoxicity assay, K562. Particulars: human, K562 cells. It counts as cell-based. The procedure:
as §1

The subject of another data set is hBM-MSCs. In words: adiponectin production assay during adipogenesis (ELISA). It is filed as cell-based. Particulars: Homo sapiens. As for the experimental part:
Human bone marrow-mesenchymal stem cells (hBM-MSCs) were purchased from Lonza, Inc. (Walkersville, MD, USA) and cultured in low-glucose (1 g/L) DMEM supplemented with 10% FBS, penicillin-streptomycin, and Glutamax^TM (Invitrogen, Carlsbad, CA, USA). To induce adipogenesis, the cell growth medium was replaced with high-glucose (4.5 g/L) DMEM supplemented with 10% FBS, penicillin-streptomycin, 10 μg/mL insulin, 0.5 μM dexamethasone, and 0.5 mM 3-isobutyl-1-methylxanthine (IBMX) (IDX conditions). IBMX, pioglitazone, and aspirin were purchased from Sigma-Aldrich (St. Louis, MO, USA). hBM-MSCs were stained with 0.2% oil red O (ORO) reagent for 10 min at 24 °C, and then washed with H2O four times. Following a 10-min elution with isopropanol, the absorbance was measured at 500 nm using a spectrophotometer. To visualize the nucleus, the hBM-MSCs were counterstained with hematoxylin reagent for 2 min and then washed twice with H2O. The level of adipocyte differentiation was observed and counted using an inverted phase microscope. A Quantikine immunoassay kit (R&D Systems, Minneapolis, MN, USA) was used for quantitative determination of adiponectin in the cell culture supernatants.
Figure S56. PPARγ binding and adiponectin secretion -promoting activities of herqueinone compounds purified from Penicillium herquei. (A) TR-FRET based competitive PPARγ binding assays were performed for herqueinone compounds 1-11. (B) Ki values for compounds 1, 3, 4, 7, 8 and 9 were calculated based on the Cheng and Prusoff analysis. (C) Herqueinone compounds were added to the IDX condition when adipogenesis was induced in hBM-MSCs. On the fifth day, the cell culture supernatants were harvested.
ELISA was performed to measure the level of adiponectin. Positive controls were pioglitazone and aspirin.
(D) The concentration dependency of herqueinone compounds 1, and 9 on adiponectin secretion-promoting activity was determined. Values represent means ± SD (n=3); * p ≤ 0.05 and ** p ≤ 0.01.
(1 picture or pasted object on this page, not shown here)

Setting [1] is: Mus musculus, RAW264.7, LPS 1 μg/mL.
Setting [2] is: IDX conditions, read-out: IC50 values, adiponectin secretion-promoting effects.
Where [3] appears, read: adiponectin secretion, Table S1, read-out: EC50 hBM-MSC(B7).

Like-named read-outs stand apart in the source and are kept apart here.

One may read the IC50 as the concentration at which inhibition is half-maximal. As for `CC(=O)CC1(O)C(=O)C2=c3c(c(O)cc(C)c3=C3O[C@H](C)C(C)(C)[C@]3(O)C2=O)C1=O` (single isomer, unassigned) [Compound 4, Oxopropylisoherqueinone A], the IC50 in the data set “cytotoxicity assay, A549” was > 10 µM; with RAW 264.7 cells (setting [1]), > 20 µM; in the data set with HUVECs (Homo sapiens, HUVEC), > 40 µM; in the data set “cytotoxicity assay, K562” it was > 10 µM.

For the compound `CC1CCN=C(N)S1` (stereo not shown) [AMT, reference compound], half-maximal inhibition in the data set on RAW 264.7 cells (LPS 1 μg/mL) (IC50) was put at 0.2 µM.

With `COc1c(O)c2c3c(c1O)C(=O)[C@@]1(O)C(=C3C(C)=C(O)C2=O)O[C@@H](C)C1(C)C` [Compound 1, ent-Peniciherqueinone], the IC50 in “cytotoxicity assay, A549” is > 10 µM; with RAW 264.7 cells (setting [1]) it was > 20 µM; in the data set on HUVECs (Homo sapiens, HUVEC) it was > 40 µM; in “cytotoxicity assay, K562” it was > 10 µM. Besides, the EC50 in the data set on hBM-MSCs (setting [2]) and in the data set with hBM-MSCs (setting [3]) was 57.5 µM each time.

For `CC1=C(O)C(=O)c2c(O)c(O)c(O)c3c2C1=C1O[C@@H](C)C(C)(C)[C@@]1(O)C3=O` [Compound 2, 12-Hydroxynorherqueinone], the IC50 was > 10 µM in the data set “cytotoxicity assay, A549”; > 20 µM in the data set with RAW 264.7 cells (setting [1]); > 40 µM in the data set on HUVECs (Homo sapiens, HUVEC); > 10 µM in “cytotoxicity assay, K562”.

`COc1c(O)c2c3c(c1O)C(=O)[C@]1(O)C(=C3C(C)=CC2=O)O[C@H](C)C1(C)C` [Compound 3, ent-Isoherqueinone]: the IC50 is > 10 µM in the data set “cytotoxicity assay, A549”; > 20 µM in the data set on RAW 264.7 cells (setting [1]); > 40 µM in the data set with HUVECs (Homo sapiens, HUVEC); > 10 µM in the data set “cytotoxicity assay, K562”.

As to `CC(=O)CC1(O)C(=O)C2=c3c(c(O)cc(C)c3=C3O[C@H](C)C(C)(C)[C@]3(O)C2=O)C1=O` (stereo partly shown) [Compound 5, Oxopropylisoherqueinone B], the concentration for half-maximal inhibition (IC50) was > 20 µM in the data set with RAW 264.7 cells (LPS 1 μg/mL) and > 40 µM in the data set on HUVECs.

Turning to `Cc1cc(O)c2c3c1=C1O[C@@H](C)C(C)(C)[C@@]1(O)C(=O)C=3C(=O)OC2=O` [Compound 6, 4-Hydroxysclerodin], the IC50 is > 10 µM in the data set “cytotoxicity assay, A549”; > 20 µM in the data set on RAW 264.7 cells (setting [1]); 20.9 µM in the data set on HUVECs (Homo sapiens, HUVEC); > 10 µM in the data set “cytotoxicity assay, K562”.

Take `CC(=O)CC1(O)C(=O)c2c(O)cc(C)c3c4c(c(O)c(c23)C1=O)C(C)(C)[C@@H](C)O4` (stereo partly shown) [Compound 7, acetone adduct of the triketone]: the IC50 was > 10 µM in “cytotoxicity assay, A549”; 3.2 µM in the data set with RAW 264.7 cells (setting [1]); > 40 µM in the data set with HUVECs (Homo sapiens, HUVEC); > 10 µM in “cytotoxicity assay, K562”.

`COc1c(O)c2c3c(c1O)C(=O)[C@@]1(O)C(=C3C(C)=CC2=O)O[C@H](C)C1(C)C` [Compound 8, herqueinone]: the 50% inhibitory concentration (IC50) in the data set “cytotoxicity assay, A549” was > 10 µM; in the data set on RAW 264.7 cells (setting [1]), > 20 µM; with HUVECs (Homo sapiens, HUVEC), > 40 µM; in the data set “cytotoxicity assay, K562”, > 10 µM.

For the compound `COc1c(O)c2c3c(c1O)C(=O)[C@@]1(O)C(=C3C(C)=CC2=O)O[C@@H](C)C1(C)C` [Compound 9, isoherqueinone], the IC50 was > 10 µM in the data set “cytotoxicity assay, A549”; > 20 µM in the data set on RAW 264.7 cells (setting [1]); > 40 µM with HUVECs (Homo sapiens, HUVEC); > 10 µM in the data set “cytotoxicity assay, K562”. Besides, the EC50 with hBM-MSCs (setting [2]) and with hBM-MSCs (setting [3]) was 39.7 µM throughout.

For the compound `Cc1cc(O)c2c3c(c(O)c4c(c13)O[C@@H](C)C4(C)C)C(=O)OC2=O` [Compound 10, sclerodin], the IC50 in the data set “cytotoxicity assay, A549” is > 10 µM; in the data set with RAW 264.7 cells (setting [1]) it was > 20 µM; in the data set on HUVECs (Homo sapiens, HUVEC), > 40 µM; in “cytotoxicity assay, K562”, > 10 µM.

As to `Cc1cc(O)c2c3c(c(O)c4c(c13)O[C@@H](C)C4(C)C)C(=O)C(=O)O2` [Compound 11, scleroderolide], the IC50 in “cytotoxicity assay, A549” is > 10 µM; in the data set with RAW 264.7 cells (setting [1]) it was > 20 µM; with HUVECs (Homo sapiens, HUVEC) it was > 40 µM; in “cytotoxicity assay, K562”, > 10 µM.

For the compound `CCc1ccc(CCOc2ccc(CC3SC(=O)NC3=O)cc2)nc1` (stereo not shown) [Pioglitazone, pioglitazone, reference compound], the EC50 in the data set on hBM-MSCs (setting [3]) worked out at 0.69 µM.

`CCN(CC)CCNC(=O)c1c(C)[nH]c(/C=C2\C(=O)Nc3ccc(F)cc32)c1C` [Sunitinib, reference compound]: the IC50 in the data set with HUVECs (Homo sapiens, HUVEC) worked out at 1.5 µM.
